tested on: M-NFS-60 cells; experiment: M-NFS-60 cell in vitro assay (CCK, 48 h, M-CSF factor medium); assay type: cell-based; settings: M-NFS-60 cells; read-out: M-NFS-60cellassay IC50
Method in brief: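 IC50 values were fitted from CCK absorbance (450 nm, 2 h development) after 48 h compound treatment. Cells: M-NFS-60, seeded 2000/well and rested 4 h, grown in medium carrying 25 ng/ml M-CSF factor plus 10% serum; compounds serially diluted in DMSO.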

| SMILES | IC50 |
| --- | --- |
| COc1cc(C(=O)Nc2cccc3c2C(=O)CC3Nc2cncc(-c3cnn(C)c3)c2)ccc1F (centres unmarked) [Compound 69, 4-fluoro-3-methoxy-N-(1-((5-(1-methyl-1H-pyrazol-4-yl)pyridin-3-yl)amino)-3-oxo-2,3-dihydro-1H-inden-4-yl)benzamide] | > 500 nM |
| Cn1cc(-c2cncc(NC3CC(=O)c4c(NC(=O)c5ccc(C(F)(F)F)cc5)cccc43)c2)cn1 (centres unmarked) [Compound 70, N-(1-((5-(1-methyl-1H-pyrazol-4-yl)pyridin-3-yl)amino)-3-oxo-2,3-dihydro-1H-inden-4-yl)-4-(trifluoromethyl)benzamide] | > 500 nM |
| Cn1cc(-c2cncc(NC3CC(F)c4c(NC(=O)c5ccc(C(F)(F)F)cc5)cccc43)c2)cn1 (centres unmarked) [Compound 71, N-(3-fluoro-1-((5-(1-methyl-1H-pyrazol-4-yl)pyridin-3-yl)amino)-2,3-dihydro-1H-inden-4-yl)-4-(trifluoromethyl)benzamide] | 200 to 500 nM |
| Cn1cc(-c2cncc(NC3CC(O)c4c(NC(=O)c5ccc(C(F)(F)F)cc5)cccc43)c2)cn1 (centres unmarked) [Compound 71a, N-(3-hydroxy-1-((5-(1-methyl-1H-pyrazol-4-yl)pyridin-3-yl)amino)-2,3-dihydro-1H-inden-4-yl)-4-(trifluoromethyl)benzamide] | 50 to 200 nM |
| Cc1ncc(-c2cnn(C)c2)cc1O[C@H]1CCc2c(NC(=O)c3ccc(C(F)(F)F)cc3)cccc21 [Compound 72, (S)—N-(1-((2-methyl-5-(1-methyl-1H-pyrazol-4-yl)pyridin-3-yl)oxy)-2,3-dihydro-1H-inden-4-yl)-4-(trifluoromethyl)benzamide] | > 500 nM |
| Cn1cc2ncc(N[C@H]3CCc4c(C(=O)Nc5cccc(C6CC6)c5)cccc43)cc2n1 [Compound 74a] | < 50 nM |
| Cn1ncc2ccc(N[C@H]3CCc4c(C(=O)Nc5cccc(C6CC6)c5)cccc43)cc21 [Compound 74b] | > 500 nM |
| Cn1cc2cc(N[C@H]3CCc4c(C(=O)Nc5cccc(C6CC6)c5)cccc43)cnc2n1 [Compound 74c] | 50 to 200 nM |
| Cn1cc2cc(N[C@H]3CCc4c(C(=O)Nc5cccc(C6CC6)c5)cccc43)ccc2n1 [Compound 74d] | > 500 nM |
| Cn1ccc2ncc(N[C@H]3CCc4c(C(=O)Nc5cccc(C6CC6)c5)cccc43)cc21 [Compound 74e] | < 50 nM |
| Cc1cc2ncc(N[C@H]3CCc4c(C(=O)Nc5cccc(C6CC6)c5)cccc43)cn2n1 [Compound 74f] | < 50 nM |
| O=C(Nc1cccc(C2CC2)c1)c1cccc2c1CC[C@@H]2Nc1cnc2ccnn2c1 [Compound 74g] | < 50 nM |
| Cc1cccc(NC(=O)c2cccc3c2CC[C@@H]3Nc2cnc3cn(C)nc3c2)c1F [Compound 74i] | < 50 nM |
| Cc1cccc(NC(=O)c2cccc3c2CC[C@@H]3Oc2cnc3cnn(C)c3c2)c1F [Compound 75, (S)—N-(2-fluoro-3-methylphenyl)-1-((1-methyl-1H-pyrazolo[4,3-b]pyridin-6-yl)oxy)-2,3-dihydro-1H-indene-4-carboxamide] | < 50 nM |
| CN(C)Cc1ccc(NC(=O)c2cccc3c2CC[C@@H]3Oc2cnc3cnn(C)c3c2)cc1 [Compound 76aa] | 50 to 200 nM |
| Cn1ncc2ncc(O[C@H]3CCc4c(C(=O)Nc5cccc(C6CC6)c5)cccc43)cc21 [Compound 76ab] | < 50 nM |
| COc1cc(NC(=O)c2cccc3c2CC[C@@H]3Oc2cnc3cnn(C)c3c2)ccc1F [Compound 76ad] | < 50 nM |
| Cn1ncc2ncc(O[C@H]3CCc4c(C(=O)Nc5ccc6c(c5)OC(F)(F)O6)cccc43)cc21 [Compound 76ae] | < 50 nM |
| Cn1cc2ncc(O[C@H]3CCc4c(C(=O)Nc5cccc(C6CC6)c5)cccc43)cc2n1 [Compound 76af] | < 50 nM |
| COc1ccc(F)c(NC(=O)c2cccc3c2CC[C@@H]3Oc2cnc3cnn(C)c3c2)c1 [Compound 76ag] | 50 to 200 nM |
| Cc1ccc(F)c(NC(=O)c2cccc3c2CC[C@@H]3Oc2cnc3cnn(C)c3c2)c1 [Compound 76ah] | < 50 nM |

| SMILES | IC50 |
| --- | --- |
| Cc1cccc(NC(=O)c2cccc3c2CC[C@@H]3Oc2cnc3cn(C)nc3c2)c1F [Compound 76aj] | < 50 nM |
| COc1cccc(NC(=O)c2cccc3c2CC[C@@H]3Oc2cnc3cnn(C)c3c2)c1F [Compound 76ak] | 50 to 200 nM |
| Cc1cc(NC(=O)c2cccc3c2CC[C@@H]3Oc2cnc3cnn(C)c3c2)ccc1F [Compound 76am] | < 50 nM |
| Cn1ncc2ncc(O[C@H]3CCc4c(C(=O)Nc5ccc(F)c(Cl)c5)cccc43)cc21 [Compound 76an] | < 50 nM |
| Cn1ncc2ncc(O[C@H]3CCc4c(C(=O)Nc5nn(C)c6ccccc56)cccc43)cc21 [Compound 76ao] | < 50 nM |
| CN(C)CCOc1cccc(NC(=O)c2cccc3c2CC[C@@H]3Oc2cnc3cnn(C)c3c2)c1 [Compound 76ap] | 50 to 200 nM |
| COc1cc(NC(=O)c2cccc3c2CC[C@@H]3Oc2cnc3cn(C)nc3c2)ccc1F [Compound 76aq] | < 50 nM |
| Cc1cc(NC(=O)c2cccc3c2CC[C@@H]3Oc2cnc3cn(C)nc3c2)ccc1F [Compound 76ar] | < 50 nM |
| Cn1cc2ncc(O[C@H]3CCc4c(C(=O)Nc5ccc(F)c(Cl)c5)cccc43)cc2n1 [Compound 76as] | < 50 nM |
| Cn1ncc2ncc(O[C@H]3CCc4c(C(=O)Nc5cncc(C6CC6)c5)cccc43)cc21 [Compound 76at] | < 50 nM |
| Cn1cc2ncc(O[C@H]3CCc4c(C(=O)Nc5ccccc5F)cccc43)cc2n1 [Compound 76au] | < 50 nM |
| Cn1cc2ncc(O[C@H]3CCc4c(C(=O)Nc5cccc(C(F)(F)F)c5F)cccc43)cc2n1 [Compound 76av] | < 50 nM |
| Cc1ccc(F)c(NC(=O)c2cccc3c2CC[C@@H]3Oc2cnc3cn(C)nc3c2)c1 [Compound 76ax] | < 50 nM |
| COc1ccc(F)c(NC(=O)c2cccc3c2CC[C@@H]3Oc2cnc3cn(C)nc3c2)c1 [Compound 76ay] | < 50 nM |
| COc1cccc(NC(=O)c2cccc3c2CC[C@@H]3Oc2cnc3cn(C)nc3c2)c1F [Compound 76az] | < 50 nM |
| Cc1cncc(NC(=O)c2cccc3c2CC[C@@H]3Oc2cnc3cn(C)nc3c2)c1 [Compound 76ba] | < 50 nM |
| Cn1cc2ncc(O[C@H]3CCc4c(C(=O)Nc5cccc(C6CC6)c5F)cccc43)cc2n1 [Compound 76bb] | < 50 nM |
| Cn1ncc2ncc(O[C@H]3CCc4c(C(=O)Nc5cccc(C6CC6)c5F)cccc43)cc21 [Compound 76bc] | < 50 nM |
| COc1c(Cl)cccc1NC(=O)c1cccc2c1CC[C@@H]2Oc1cnc2cn(C)nc2c1 [Compound 76be] | 50 to 200 nM |
| Cn1ncc2ncc(O[C@H]3CCc4c(NC(=O)c5cccc(C6CC6)c5)cccc43)cc21 [Compound 77, (S)-3-cyclopropyl-N-(1-((1-methyl-1H-pyrazolo[4,3-b]pyridin-6-yl)oxy)-2,3-dihydro-1H-inden-4-yl)benzamide] | 50 to 200 nM |
| Cn1ncc2ncc(O[C@H]3CCc4c(NC(=O)c5cccc(C6CC6)c5)ccc(F)c43)cc21 [Compound 78a] | < 50 nM |

| SMILES | IC50 |
| --- | --- |
| Cc1ccc(NC(=O)c2cccc(C3CC3)c2)c2c1[C@@H](Oc1cnc3cnn(C)c3c1)CC2 [Compound 78b] | > 500 nM |
| Cc1cccc(NC(=O)c2cccc3c2CC[C@@H]3N(C)c2cnc3cnn(C)c3c2)c1F [Compound 79, (S)—N-(2-fluoro-3-methylphenyl)-1-(methyl (1-methyl-1H-pyrazolo[4,3-b]pyridin-6-yl)amino)-2,3-dihydro-1H-indene-4-carboxamide] | < 50 nM |
| CN(c1cnc2cnn(C)c2c1)[C@H]1CCc2c(C(=O)Nc3cccc(C4CC4)c3)cccc21 [Compound 80a] | < 50 nM |
| CN(c1cnc2cn(C)nc2c1)[C@H]1CCc2c(C(=O)Nc3cccc(C4CC4)c3)cccc21 [Compound 80b] | < 50 nM |
| CN(C)Cc1ccc(NC(=O)c2cccc3c2CC[C@@H]3N(C)c2cnc3cnn(C)c3c2)cc1F [Compound 80c] | 50 to 200 nM |
| COc1cc(NC(=O)c2cccc3c2CC[C@@H]3N(C)c2cnc3cnn(C)c3c2)ccc1F [Compound 80d] | < 50 nM |
| CN(c1cnc2cnn(C)c2c1)[C@H]1CCc2c(C(=O)Nc3cncc(Cl)c3)cccc21 [Compound 80e, (S)—N-(5-chloropyridin-3-yl)-1-(methyl (1-methyl-1H-pyrazolo[4,3-b]pyridin-6-yl)amino)-2,3-dihydro-1H-indene-4-carboxamide] | < 50 nM |
| CN(C)Cc1cc(NC(=O)c2cccc3c2CC[C@@H]3N(C)c2cnc3cnn(C)c3c2)ccc1F [Compound 80f] | 50 to 200 nM |
| CN(C)Cc1ccc(NC(=O)c2cccc3c2CC[C@@H]3N(C)c2cnc3cnn(C)c3c2)cc1 [Compound 80g] | 200 to 500 nM |
| CN(c1cnc2cnn(C)c2c1)[C@H]1CCc2c(C(=O)Nc3nn(C)c4ccccc34)cccc21 [Compound 80h] | < 50 nM |
| CN(c1cnc2cnn(C)c2c1)[C@H]1CCc2c(C(=O)Nc3ccc4c(c3)OC(F)(F)O4)cccc21 [Compound 80i] | 50 to 200 nM |
| Cc1cccc(NC(=O)c2cccc3c2CC[C@@H]3N(C)c2cnc3cn(C)nc3c2)c1F [Compound 80j] | < 50 nM |
| COc1cccc(NC(=O)c2cccc3c2CC[C@@H]3N(C)c2cnc3cn(C)nc3c2)c1F [Compound 80m] | < 50 nM |
| Cc1ccc(F)c(NC(=O)c2cccc3c2CC[C@@H]3N(C)c2cnc3cn(C)nc3c2)c1 [Compound 80n] | < 50 nM |
| CN1CCc2nc(NC(=O)c3cccc4c3CC[C@@H]4N(C)c3cnc4cn(C)nc4c3)sc2C1 [Compound 80o] | < 50 nM |
| COc1ccc(F)c(NC(=O)c2cccc3c2CC[C@@H]3N(C)c2cnc3cn(C)nc3c2)c1 [Compound 80p] | < 50 nM |
| Cc1cc(NC(=O)c2cccc3c2CC[C@@H]3N(C)c2cnc3cnn(C)c3c2)ccc1F [Compound 80q] | < 50 nM |
| CN(c1cnc2cnn(C)c2c1)[C@H]1CCc2c(C(=O)Nc3ccc(F)c(Cl)c3)cccc21 [Compound 80r] | < 50 nM |
| Cc1cc(NC(=O)c2cccc3c2CC[C@@H]3N(C)c2cnc3cn(C)nc3c2)ccc1F [Compound 80s] | < 50 nM |
| CN(c1cnc2cn(C)nc2c1)[C@H]1CCc2c(C(=O)Nc3ccc(F)c(Cl)c3)cccc21 [Compound 80t] | < 50 nM |
